Results: patent US10669287B2, “Curcumin-boron complex and pharmaceutical containing same” (JAPAN SCIENCE AND TECHNOLOGY AGENCY, priority 2016, dated 2020)
Like-named read-outs stand apart in the source and are kept apart here.

Tests used:
PC 12 cells [1] = format: cell-based
Experimental: Rat pheochromocytoma PC 12 cells were suspended with DMEM containing 5% horse serum and 10% fetal bovine serum, seeded in a poly-D-lysine-coated 96-well plate at a concentration of 10,000 cells per well, and incubated in a 5% carbon dioxide atmosphere at 37° C. for 3 days. After the solvent was removed, the cells were washed with 150 μL of serum-free DMEM, and DMEM (75 μL) containing 0.1% horse serum was added thereto. Thereafter, the 96-well plate was incubated in a 5% carbon dioxide atmosphere at 37° C. for 1 day for use in oxygenation reaction. In oxygenation reaction, the compound E (100 μM dimethyl sulfoxide solution) was added to a phosphate buffer saline containing Aβ (aggregated in advance for 3 hours, 40 μM) and 25 μL of the above cell solution (final concentration of Aβ: 10 μM, final concentration of compound E: 1 μM). The mixture was irradiated with an LED (wavelength: 780 nm) at a distance of approximately 5 cm at 37° C. for 5 minutes. The cells were incubated in a 5% carbon dioxide atmosphere at 37° C. for 48 hours. The cell viability was measured by using the Cell Count Reagent SF (NACALAI TESQUE, INC., Kyoto, Japan) with WST-8 (2-(2-methoxy-4-nitrophenyl)-3-(4-nitrophenyl)-5-(2,4-disulfophenyl)-2H-tetrazolium).
b: LC50 (dark) indicates the toxicity of a compound itself, and LC50 (light) indicates the phototoxicity of a compound. The PC 12 cells were placed in dark or subjected to photocatalytic treatment under light irradiation (wavelength: 660 nm), and incubated at 37° C. for 5 minutes, and then in a 5% carbon dioxide atmosphere at 37° C. for 48 hours, for which the cell viability was analyzed (n=5, mean±SEM).
b: The PC 12 cells were treated together with a photocatalyst (1 μM) at 37° C. for 5 minutes in dark or under light irradiation (wavelength: 780 nm), and thereafter the cell viability was analyzed (n=3, mean±SEM).

[2] = Maximum wavelength λmax of photocatalysts; format: physicochemical; settings: Table 2
[3] = Stability of catalyst in neutral phosphate buffer without or under light irradiation (HPLC), Test Example 5; format: physicochemical; settings: under light irradiation (660 nm)
Experimental: A neutral phosphate buffer containing a catalyst was incubated without light irradiation or under light irradiation (660 nm), and thereafter ethanol containing benzyl alcohol (as an internal standard) was added thereto, and analysis was performed by using HPLC.

Aβ1-42 = molecular target: T1, Aβ1-42 (Homo sapiens, UniProt P05067); experiment: In vitro oxygenation experiment using Aβ1-42 as a substrate (MALDI-TOF MS), Test Example 1; format: biochemical; settings: test compound 1 μM, Aβ1-42 10 μM, LED irradiation at both 660 nm and 730 nm, 37° C.
T1 construct: phosphate buffer (pH 7.4)/cell culture solution (containing 0.1% horse serum) (1:3) containing Aβ1-42 (10 μM)
Experimental: An in vitro oxygenation experiment using Aβ1-42 as a substrate was conducted to confirm that each of the inventive compounds actually have Aβ oxygenation activity. A test compound (1 μM in each case) was added to phosphate buffer (pH 7.4)/cell culture solution (containing 0.1% horse serum) (1:3) containing Aβ1-42 (10 μM), and incubated under LED irradiation (wavelength: 660 nm, 730 nm) at 37° C., and then the reaction was tracked by using a mass spectrometer (MALDI-TOF MS). The native Aβ1-42 and the Na^+ adduct were mainly observed before light irradiation. After light irradiation, an ion peak indicating the presence of the oxygenated form was observed over time (FIG. 1, FIG. 2).

PC 12 cells [4] = experiment: Action on cells through selective oxygenation of Aβ1-42, WST-8 cell viability, Test Example 3; format: cell-based, rat; settings: Aβ 10 μM, compound E 1 or 3 μM, 48 hours
Experimental: A phosphate buffer saline (pH 7.4) containing Aβ (40 μM) was incubated at 37° C. for 3 hours. Subsequently, the compound E was added thereto (4 or 12 μM). A culture medium for rat adrenal medulla-derived pheochromocytoma PC 12 cells (purchased from RIKEN, Japan) seeded on a poly-D-lysine-coated 96-well plate was replaced with 75 μL of a Dulbecco's modified Eagle's medium containing 0.1% horse serum, and the culture was incubated in a 5% CO2 atmosphere at 37° C. for 1 day, and 25 μL of the phosphate buffer saline (pH 7.4) containing Aβ and the compound E was then added thereto (final volume: 100 μL, final concentration of Aβ: 10 μM, final concentration of compound E: 1 or 3 μM). […] Finally, the Cell Count Reagent SF (10 μL: purchased from NACALAI TESQUE, INC.) containing WST-8 was added, and the culture was incubated in a 5% CO2 atmosphere at 37° C. for 3 hours, and thereafter the cell viability was determined from the absorbance at 450 nm (reference wavelength: 655 nm).
From the results shown in FIG. 4, an attempt was made to examine whether the toxicity of Aβ1-42 can be reduced through oxygenation of the Aβ1-42 in the presence of cells. […] The cell viability was determined through measurement of the absorption by WST-8 at 450 nm by using a plate reader.

Arctic Aβ1-38 = molecular target: T2, Arctic Aβ1-38 (Homo sapiens, UniProt P05067, E693G); format: biochemical; settings: mouse brain lysate, light 780 nm
T2 construct: The peak intensity decreased by 36%/53%/74% for Arctic Aβ1-38; from tissue; host or cells: cerebral cortex and hippocampus of App knock-in mouse
Experimental: The brain excised from an eight-month-old App knock-in (App^NL-C-F/NL-C-F) mouse (Alzheimer's model mouse) was separated into the cerebral cortex, the hippocampus, and the residual brain tissues. The cerebral cortex and the hippocampus were homogenized together in a phosphate buffer saline, and the suspension was stored at −80° C. […] At an arbitrary point of time, an arbitrary aliquot of the reaction mixture was diluted with formic acid to a final concentration of 70%, concentrated, and redissolved in a 6 M aqueous solution of urea.

[5] = Conversion of N-benzoyl-Met under different glycerol concentrations, Test Example 8; settings: compound 2 μM, N-benzoyl-Met 2 mM, glycerol-methanol 0, 10, 30, or 50% glycerol, 780 nm, room temperature
Experimental: To a glycerol-methanol mixed solvent (glycerol: 0, 10, 30, or 50%), furfuryl alcohol or N-benzoyl-Met (2 mM in each case) and the compound E (2 μM) were added, and the mixture was subjected to light irradiation (wavelength: 780 nm) at room temperature, and the concentration of furfuryl alcohol or N-benzoyl-Met was quantified by using a UV absorptiometer with LC/MS 10 minutes, 20 minutes, and 30 minutes after the initiation of light irradiation.

Q: With O=C(O)CCCCCN1CCCc2cc(/C=C/C3=[O+][B-](F)(C(F)(F)C(F)(F)F)OC(/C=C/c4cc5c6c(c4)CCCN6CCC5)=C3Br)ccc21 (stereo not shown) [Compound E] as the compound, how does the CC50 (PC 12 cells [1]) read?
A: > 10 µM

Q: What about the “Maximum wavelength λmax (nm)” value [2] of the same compound?
A: 639 nm

Q: And the “stability of catalyst (ranking)” value [3]?
A: stability was higher

Q: And the “oxygenation of Aβ1-42 under light irradiation” value (Aβ1-42)?
A: oxygenation of the Aβ proceeded

Q: What about the “cell viability with Aβ1-42 and compound E” value (PC 12 cells [4]; under LED irradiation 660 nm, 10 mW, 5 minutes) of the same compound?
A: the cell viability was significantly improved

Q: What about the “cell viability with Aβ1-42 and compound E” value (PC 12 cells [4]; without light irradiation) of the same compound?
A: significant cell death

Q: And the “decrease of peak intensity (conversion) of Arctic Aβ1-38” value (from here on “decrease of peak intensity”) (Arctic Aβ1-38; 30 minutes)?
A: 36%

Q: What about the “decrease of peak intensity” value (Arctic Aβ1-38; 60 minutes) of the same compound?
A: 53%

Q: What about the “decrease of peak intensity” value (Arctic Aβ1-38; 150 minutes) of the same compound?
A: 74%

Q: And the “oxygenation of N-benzoyl-Met” value [5]?
A: accelerated as the viscosity of the solvent was higher
